Test results reported in patent publication US20080076772A1, “Anti-Inflammatory Agents” (Pharma Mar S.A. Sociedad Unipersonal, priority 2004, published 2008).

Legend:
IL-6 [1] = assay: IL-6 production by LPS-stimulated in vitro differentiated macrophages (ELISA); assay type: cell-based; settings: Homo sapiens, Macrophage; 5 nM, n=2; read-out: overall inhibition of IL-6 production, macrophages
Description: Supernatants of untreated cells or cells treated with ecteinascidin 743 or other anti-neoplastic agents were collected after 24 h culture and frozen. Monocytes, macrophages and TAM were stimulated with 100 ng/ml LPS to induce maximal cytokine production. Determination of cytokines CCL2, TNF and IL-6 was measured by specific ELISA following the manufacturer's instructions.
Monocytes and in vitro differentiated macrophages were stimulated with LPS (100 ng/ml). After 1 h LPS stimulation they were treated with ecteinascidin 743. After 16 h incubation, cell supernatants were harvested and tested in ELISA. Under these treatment conditions cell viability was usually >85% for concentrations up to 5 nM. […] Mean inhibition at 5 nM, for monocytes, was 65% (range 50-80%, n=5) and was 50% (range 25-75%, n=5) for in vitro differentiated macrophages. Results are mean+/−SE of 3-5 experiments
We also tested two other cytokines, IL-6 and TNF, produced by macrophages and tumour cells, which have inflammatory properties and also act as growth factors for some tumours. IL-6 production was always reduced after ecteinascidin 743 treatment, with an overall inhibition at 5 nM of 54% (range 51-57%, n=2) and 69% (range 66-72%, n=2), in monocytes and macrophages, respectively (FIG. 6B). […]

IL-6 [2] = assay: IL-6 release in TAM (ELISA); assay type: cell-based; settings: Homo sapiens, n=4
Excerpt: (§1) Tumour-associated macrophages (TAM) and tumour cells were isolated from the ascitic fluid of patients with diagnosed ovarian adenocarcinoma, admitted to the Clinic of Obstetrics and Gynecology of the University of Milan-Bicocca, S Gerardo Hospital. Cells contained in the ascitic fluid were centrifuged and isolated by differential density gradients of Ficoll and Percoll, and plastic adherence as previously described (see Allavena, P., Peccatori, F., Maggioni, D., Erroi, A., Sironi, M., Colombo, N., Lissoni, A., Galazka, A., Meiers, W., Mangioni, C., et al. Intraperitoneal recombinant gamma-interferon in patients with recurrent ascitic ovarian carcinoma: modulation of cytotoxicity and cytokine production in tumour-associated effectors and of major histocompatibility antigen expression on tumour cells. Cancer Res, 50: 7318-7323, 1990). Purity of TAM and tumour cell preparations was usually>65±10% as defined by morphology and phenotype analysis. Cells were treated with ecteinascidin 743 at the indicated concentrations and cultured for 1-5 days, as specified in figure legends. […]
Supernatants of untreated cells or cells treated with ecteinascidin 743 or other anti-neoplastic agents were collected after 24 h culture and frozen. […] Determination of cytokines CCL2, TNF and IL-6 was measured by specific ELISA following the manufacturer's instructions. […]

IL-6 [3] = assay: Constitutive IL-6 production by freshly isolated ovarian tumour cells (ELISA); assay type: cell-based, human; settings: 16 h
Excerpt: as §1
Monocytes, macrophages and TAM were stimulated with 100 ng/ml LPS to induce maximal cytokine production. Determination of cytokines CCL2, TNF and IL-6 was measured by specific ELISA following the manufacturer's instructions. […]

TNF = TNF production by LPS-stimulated monocytes (ELISA); assay type: cell-based, human; settings: LPS 100 ng/ml, 16 h incubation
Description: Monocytes, macrophages and TAM were stimulated with 100 ng/ml LPS to induce maximal cytokine production. Determination of cytokines CCL2, TNF and IL-6 was measured by specific ELISA following the manufacturer's instructions.
(§2) To verify whether the inhibitory effect of ecteinascidin 743 on cytokine production was at the transcriptional level, we analyzed mRNA of CCL2 and TNF from LPS-stimulated macrophages by real time-PCR of CCL2 and TNF transcripts in LPS-stimulated monocytes exposed to ecteinascidin 743.
CCL2 and TNF production by LPS-stimulated monocytes treated with the indicated doses of the anti-tumor agents was also tested. […] […] None of these compounds interfered with the production of TNF.

CCL2 transcripts = assay: Real time-PCR of CCL2 transcripts in LPS-stimulated monocytes; assay type: cell-based, human
Excerpt: as §2

Work on `COc1cc2c(cc1O)CCN[C@]21CS[C@@H]2c3c(OC(C)=O)c(C)c4c(c3[C@H](COC1=O)N1[C@@H]2[C@H]2c3c(cc(C)c(OC)c3O)C[C@@H]([C@@H]1O)N2C)OCO4` [ecteinascidin 743] yielded an inhibition at 0.005 µM (IL-6 [1]) of 69%, an inhibition at 0.005 µM (IL-6 [2]; 5 nM) of 35% and an inhibition at 0.01 µM (IL-6 [2]; 10 nM) of 47%. The “constitutive production of IL-6 by freshly isolated tumour cells” value (IL-6 [3]) was “reduced”, the “production of TNF by monocytes” value (TNF) was “never inhibited” and the CCL2 transcripts (CCL2 transcripts) was “consistent reduction”.
